Measurements published in ChEMBL document CHEMBL5505957 (Eur J Med Chem, 2024).
Values after ≈ are worked out from the molar mass of the structure shown.

Assays:
[1] = tested on: Human immunodeficiency virus 1; experiment: microbe, parasite or virus in culture; settings: Human immunodeficiency virus 1, C8166
[2] = tested on: Human immunodeficiency virus 1; experiment: microbe, parasite or virus in culture; settings: Human immunodeficiency virus 1, C8166; remark: listed apart in the source
Rattus norvegicus = experiment: Anti-inflammatory activity against carrageenan-induced paw edema in Sprague-Dawley rat assessed as inhibition of paw edema
Protein O-GlcNAcase = target: T1, Protein O-GlcNAcase (Homo sapiens, UniProt O60502)
T1 sequence (O60502 whole entry): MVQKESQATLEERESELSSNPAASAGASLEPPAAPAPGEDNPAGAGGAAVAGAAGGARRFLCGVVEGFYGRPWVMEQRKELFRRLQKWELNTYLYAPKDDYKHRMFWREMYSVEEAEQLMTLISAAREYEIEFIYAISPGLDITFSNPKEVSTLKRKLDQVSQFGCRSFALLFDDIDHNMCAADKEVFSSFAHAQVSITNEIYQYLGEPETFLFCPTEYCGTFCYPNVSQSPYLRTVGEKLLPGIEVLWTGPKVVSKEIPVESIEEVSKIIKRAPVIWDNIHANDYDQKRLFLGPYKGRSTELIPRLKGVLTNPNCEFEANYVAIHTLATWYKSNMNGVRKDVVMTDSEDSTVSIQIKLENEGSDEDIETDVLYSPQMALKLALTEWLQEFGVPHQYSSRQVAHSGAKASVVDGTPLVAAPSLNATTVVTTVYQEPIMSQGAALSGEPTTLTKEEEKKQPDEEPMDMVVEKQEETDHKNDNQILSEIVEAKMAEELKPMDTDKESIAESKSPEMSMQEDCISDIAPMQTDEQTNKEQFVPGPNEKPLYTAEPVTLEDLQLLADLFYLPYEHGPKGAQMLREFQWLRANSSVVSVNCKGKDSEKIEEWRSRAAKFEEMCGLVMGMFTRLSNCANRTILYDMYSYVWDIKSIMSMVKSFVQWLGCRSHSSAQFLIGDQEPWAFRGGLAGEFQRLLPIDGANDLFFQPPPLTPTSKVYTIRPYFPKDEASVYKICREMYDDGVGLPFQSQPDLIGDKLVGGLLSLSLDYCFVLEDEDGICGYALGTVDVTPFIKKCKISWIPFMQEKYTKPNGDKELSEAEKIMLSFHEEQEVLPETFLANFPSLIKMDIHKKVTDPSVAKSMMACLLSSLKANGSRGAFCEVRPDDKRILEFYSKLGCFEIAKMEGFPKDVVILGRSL

[3] = Cytotoxicity against MDCK cells assessed as reduction in cell viability incubated for 48 hrs by MTT assay; settings: dog
Cholinesterase = Cholinesterase (Equus caballus, UniProt P81908); experiment: Inhibition of equine serum BuChE using butyrylthiocholine chloride as substrate by Ellman's method
[4] = tested on: Human immunodeficiency virus 1; experiment: Anti-HIV activity against wild type HIV-1 IIIB infected in human MT4 cells assessed as inhibition of virus-induced cytopathic effect incubated for 5 days by MTT assay; settings: Human immunodeficiency virus 1, IIIB, MT4, 120 h
[5] = Cytotoxicity against African green monkey Vero E6 cells assessed as reduction in cell viability measured after 72 hrs by MTS assay
[6] = target: Replicase polyprotein 1ab (Severe acute respiratory syndrome coronavirus 2, UniProt P0DTD1)
[7] = tested on: Human immunodeficiency virus 1; experiment: Antiviral activity against HIV-1 infected in human MT4 cells assessed as inhibition of virus-induced cytopathic effect measured after 5 days by spectrophotometric MTT assay; settings: Human immunodeficiency virus 1, MT4, 120 h
[8] = Inhibition of Influenza A virus H1N1 neuraminidase
[9] = target: T2, M-phase inducer phosphatase 3 (Homo sapiens, UniProt P30307); experiment: Inhibition of full-length recombinant human CDC25C incubated for 5 to 8 mins by fluorescence based assay
T2 sequence (P30307 whole entry): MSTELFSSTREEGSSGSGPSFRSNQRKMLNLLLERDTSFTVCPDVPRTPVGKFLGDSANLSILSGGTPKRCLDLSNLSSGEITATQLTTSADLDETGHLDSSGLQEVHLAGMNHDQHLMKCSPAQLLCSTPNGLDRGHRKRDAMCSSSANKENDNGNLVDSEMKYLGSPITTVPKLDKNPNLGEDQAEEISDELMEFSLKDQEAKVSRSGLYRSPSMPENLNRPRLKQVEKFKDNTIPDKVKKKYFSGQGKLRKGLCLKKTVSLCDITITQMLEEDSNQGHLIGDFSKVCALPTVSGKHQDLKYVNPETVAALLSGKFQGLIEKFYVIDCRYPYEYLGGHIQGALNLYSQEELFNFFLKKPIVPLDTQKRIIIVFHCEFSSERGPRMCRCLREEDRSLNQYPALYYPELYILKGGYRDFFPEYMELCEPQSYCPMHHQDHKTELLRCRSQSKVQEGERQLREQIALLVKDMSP

[10] = Inhibition of Serratia marcescens Chitinase B
[11] = target: T3, Human immunodeficiency virus type 1 protease (Human immunodeficiency virus 1, UniProt Q72874)
Aspergillus fumigatus [12] = experiment: Antimicrobial activity against Aspergillus fumigatus assessed as fungal growth inhibition
Aspergillus fumigatus [13] = experiment: Antifungal activity against Aspergillus fumigatus by CLSI based broth microdilution method
[14] = target: T3, Human immunodeficiency virus type 1 protease; experiment: Binding affinity to HIV-1 protease assessed as inhibition constant
[15] = Inhibition of Serratia marcescens Chitinase A

Chain of Cholinesterase (P81908 whole entry): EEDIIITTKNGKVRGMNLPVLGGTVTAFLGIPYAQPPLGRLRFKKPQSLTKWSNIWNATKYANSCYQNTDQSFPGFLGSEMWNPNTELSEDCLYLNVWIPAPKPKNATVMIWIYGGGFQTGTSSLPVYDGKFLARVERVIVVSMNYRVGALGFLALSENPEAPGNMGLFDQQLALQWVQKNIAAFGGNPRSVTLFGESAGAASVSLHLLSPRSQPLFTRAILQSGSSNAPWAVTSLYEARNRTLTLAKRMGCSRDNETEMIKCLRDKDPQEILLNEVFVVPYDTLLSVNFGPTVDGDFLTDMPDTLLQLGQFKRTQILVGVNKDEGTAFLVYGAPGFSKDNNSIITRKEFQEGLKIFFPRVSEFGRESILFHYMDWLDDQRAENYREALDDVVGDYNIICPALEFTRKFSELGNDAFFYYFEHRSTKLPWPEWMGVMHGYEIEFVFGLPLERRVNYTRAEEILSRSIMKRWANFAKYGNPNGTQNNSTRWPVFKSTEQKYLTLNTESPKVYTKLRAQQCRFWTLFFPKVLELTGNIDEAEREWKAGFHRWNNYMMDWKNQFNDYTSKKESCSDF

COc1ccc(S(=O)(=O)N(CC(C)C)C[C@@H](O)[C@H](Cc2ccccc2)n2cc(CNC(=O)c3ccc(CNC(=O)OC(C)(C)C)cc3)nn2)cc1
IC50 [1]: 17 nM | IC50 [2]: 52 nM

Cc1cc(-n2cc(-c3ccc(F)cc3)nn2)n(-c2ccc(S(C)(=O)=O)cc2)n1
ED50 (Rattus norvegicus): 0.44 mg/kg

Cc1cc(-n2cc(-c3ccc(N)cc3)nn2)n(-c2ccc(S(C)(=O)=O)cc2)n1
ED50 (Rattus norvegicus): 0.12 mg/kg

CO[C@@H]1O[C@H](CO)[C@@H](O)[C@H](O)[C@H]1n1cc(CCc2ccccc2)nn1
IC50 (Protein O-GlcNAcase): 500 nM

Cc1[nH]c(=O)[nH]c(=O)c1CCCc1cn(C2OC(CO)C(O)C2O)nn1 (configuration not stated)
CC50 at 48 h [3]: 79000 nM

O=C(CCCCC1CCSS1)NCc1cn(CCCCOc2ccc3c(c2)OCCC3=O)nn1 (configuration not stated)
IC50 (Cholinesterase): 7550 nM

COC(=O)c1ccc(-n2cc(-c3cc(C)c(Oc4ccnc(Nc5ccc(C#N)cc5)n4)c(C)c3)nn2)cc1
IC50 [4]: 13 nM

CC1=NN(c2ccc(Cl)cc2)C(=O)/C1=C\c1ccc(OCc2cn(CC(=O)NCc3ccc(C(=O)O)cc3)nn2)cc1
IC50 at 72 h [5]: 22100 nM | IC50 [6]: 3160 nM

Cc1c(Cc2c(Cl)cccc2Cl)nc(SCc2cn(Cc3ccc(S(N)(=O)=O)cc3)nn2)[nH]c1=O
EC50 [7]: 3220 nM

CC(=O)O[C@H]1[C@H](OCc2cn(CC3=NCCS3)nn2)OC[C@@H](OC(C)=O)[C@H]1OC(C)=O
IC50 [8]: 1640 nM

CO[C@@H]1O[C@H](CO)[C@@H](O)[C@H](O)[C@H]1n1cc(COc2ccccc2)nn1
IC50 (Protein O-GlcNAcase): 720 nM

CC(NC1=C(Cl)C(=O)c2cccnc2C1=O)c1cn(Cc2ccc(CO)cc2)nn1 (configuration not stated)
IC50 [9]: 60 nM

CNC(=O)NC(=O)NCCC[C@@H](NC(=O)CN)C(=O)N(Cc1ccccc1)Cc1ccccc1
IC50 [10]: 580 nM

COC(=O)[C@@H](NC(=O)OCc1cn([C@@H](Cc2ccccc2)[C@H](O)CN(CC(C)C)S(=O)(=O)c2ccc(OC)cc2)nn1)c1ccccc1
IC50 [11]: 10 nM

CO[C@@H]1O[C@H](CO)[C@@H](O)[C@H](O)[C@H]1n1cc(CNc2ccccc2)nn1
IC50 (Protein O-GlcNAcase): 520 nM

COc1ccc(S(=O)(=O)N(CC(C)C)C[C@@H](O)[C@H](Cc2ccccc2)n2cc(CNC(=O)c3ccncc3)nn2)cc1
IC50 [11]: 10 nM

COc1ccc(S(=O)(=O)N(CC(C)C)C[C@@H](O)[C@H](Cc2ccccc2)n2cc(CNC(=O)N[C@H]3c4ccccc4C[C@H]3O)nn2)cc1
IC50 [2]: 46 nM

COC(=O)[C@@H](C)NP(=O)(OCC1OC(n2cc(CN3CCC(=O)NC3=O)nn2)C(O)C1O)Oc1ccccc1 (some centres not stated)
IC50 [8]: 25000 nM

C=CCc1ccc(OCc2cn([C@H]3O[C@H](COC(C)=O)[C@@H](OC(C)=O)[C@H](OC(C)=O)[C@H]3OC(C)=O)nn2)c(OC)c1
MIC (Aspergillus fumigatus [12]): 10.9 µM (≈ 6.25 µg/mL) | IC50 (Aspergillus fumigatus [13]): 5420 nM

CNC(=O)NC(=N)NCCC[C@@H](NC(=O)Cn1nncc1CO/N=C/c1ccnc2ccccc12)C(=O)N(Cc1ccccc1)Cc1ccccc1
IC50 [10]: 22 nM

COc1ccc(S(=O)(=O)N(CC(C)C)C[C@@H](O)C(Cc2ccccc2)n2cc(COC(=O)NC3c4ccccc4C[C@H]3O)nn2)cc1 (single isomer, unassigned)
IC50 [11]: 6 nM | Ki [14]: 1.7 nM

CNC(=O)NC(=N)NCCC[C@@H]1NC(=O)[C@@H](C)NC(=O)C[C@@H](C(=O)O)NC(=O)C[C@@H](C(=O)O)NC(=O)[C@H](Cc2ccccc2)N(C)C1=O [ARGIFIN]
IC50 [10]: 6400 nM | IC50 [15]: 25 nM
